Literature values as cited in patent US20080185562A1, “Oxalate ester chemiluminescent light system” (Tianjin Dragon Chemiluminescent Tubes Co., Ltd., priority 2007, published 2008).

Columns and labels:
[1] = PEG value depends on molecular weight
rats = conditions: rat
[2] = at 122° C.

Compound	Toxicity (LD50 oral, mg/kg) (mus)	Flash point (° C./° F.) [1]	Toxicity (LD50 oral, mg/kg) (rats)	Vapor pressure (kPa) [2]
OCCCO [1,3-propylene glycol]	4,770 (mus) mg/kg	79/174	–	–
CCCCOCCOCCOCCCC [dibutyl diethylene glycol ether]	–	117/243	3,900 (rat) mg/kg	1.33 at 122 °C kPa
